Assay results as given in US8278465B2, “Coumarin derivative having antitumor activity” (Chugai Seiyaku Kabushiki Kaisha, priority 2006, dated 2012).
Read-outs that look alike come from different tables or passages of the source.

System: human colon cancer cell line HCT116
Test: Measurement of cell proliferation inhibitory activity (Cell Counting Kit-8)
Type: cell-based
Settings: HCT116, 4 days incubation, read-out: IC50 (50% proliferation inhibitory concentration)
Protocol: The cell proliferation inhibitory activities of the compounds and salts shown in Tables 1-1, 1-2 and Table 2 were measured as follows, using the human colon cancer cell line HCT116 (American Type Culture Collection, VA, USA). 2000 to 3000 cells per well of the human colon cancer cell line HCT116 was placed in a 96-well culture plate, a predetermined concentration (0.00038 μM, 0.00076 μM, 0.0015 μM, 0.0031 μM, 0.0061 μM, 0.012 μM, 0.024 μM, 0.049 μM, 0.098 μM, 0.195 μM, 0.39 μM, 0.78 μM, 1.56 μM, 3.13 μM, 6.25 μM, 12.5 μM, 25 μM or 50 μM) of the test substance was added thereto, and the mixture was then incubated at 37° C. under 5% CO2 environment for 4 days. On day 4 of incubation, the Cell Counting Kit-8 solution (Dojindo Laboratories) was added, the absorbance (measurement wavelength: 450 nm; reference wavelength: 615 nm) was measured following the protocol attached to the kit, and the 50% proliferation inhibitory concentration (IC50) was calculated.

[1] = Homo sapiens, HCT-116, 96 h, Table 1-1
[2] = Homo sapiens, HCT-116, 96 h, Table 1-2

SMILES | IC50 [1] | IC50 [2] | other results
Cc1c(Cc2ccccc2)c(=O)oc2cc(OC(=O)N(C)C)c(Cl)cc12 [Comp. 2, dimethylcarbamic acid 2-oxo-2H-3-benzyl-4-methyl-6-chloro-1-benzopyran-7-yl ester, reference compound] | – | – | IC50 (Table 1-2): 1.3 µM
CNS(=O)(=O)Nc1cccc(Cc2c(CF)c3cc(Cl)c(OC(=O)N(C)C)cc3oc2=O)c1 [Compound 1j-1-3-2F, Dimethylcarbamic acid 6-chloro-4-fluoromethyl-3-{3-(methylaminosulfonyl)aminobenzyl}-2-oxo-2H-1-benzopyran-7-yl ester] | 0.0195 µM | – | –
Cc1c(Cc2cccc(NS(N)(=O)=O)c2F)c(=O)oc2cc(OC(=O)N(C)C)ccc12 [Compound 1j-1-4-1, Dimethylcarbamic acid 3-(3-aminosulfonylamino-2-fluoro-benzyl)-4-methyl-2-oxo-2H-1-benzopyran-7-yl ester] | 0.0176 µM | – | –
CNS(=O)(=O)Nc1cccc(Cc2c(C)c3ccc(OC(=O)N(C)C)cc3oc2=O)c1F [Compound 1j-1-4-2, Dimethylcarbamic acid 3-(3-methylaminosulfonylamino-2-fluorobenzyl)-4-methyl-2-oxo-2H-1-benzopyran-7-yl ester] | 0.0093 µM | – | –
CNS(=O)(=O)Nc1cccc(Cc2c(CF)c3ccc(OC(=O)N(C)C)cc3oc2=O)c1F [Compound 1j-1-4-2F, Dimethylcarbamic acid 3-(3-methylaminosulfonylamino-2-fluorobenzyl)-4-fluoromethyl-2-oxo-2H-1-benzopyran-7-yl ester] | 0.0106 µM | – | –
Cc1c(Cc2cccc(NS(N)(=O)=O)c2F)c(=O)oc2cc(OC(=O)N(C)C)c(F)cc12 [Compound 1j-1-5-1, Dimethylcarbamic acid 3-{2-fluoro-3-(aminosulfonyl)aminobenzyl}-6-fluoro-4-methyl-2-oxo-2H-1-benzopyran-7-yl ester] | 0.0083 µM | – | –
CNS(=O)(=O)Nc1cccc(Cc2c(C)c3cc(F)c(OC(=O)N(C)C)cc3oc2=O)c1F [Compound 1j-1-5-2, Dimethylcarbamic acid 6-fluoro-4-methyl-3-{2-fluoro-3-(methylaminosulfonyl)aminobenzyl}-2-oxo-2H-1-benzopyran-7-yl ester] | 0.0029 µM | – | –
Cc1c(Cc2cccc(NS(N)(=O)=O)c2)c(=O)oc2cc(OC(=O)N(C)C)c(I)cc12 [Compound 1j-1-7-1, Dimethylcarbamic acid 3-{3-(aminosulfonyl)aminobenzyl}-6-iodo-4-methyl-2-oxo-2H-1-benzopyran-7-yl ester] | 0.0114 µM | – | –
CNS(=O)(=O)Nc1cccc(Cc2c(C)c3cc(I)c(OC(=O)N(C)C)cc3oc2=O)c1 [Compound 1j-1-7-2, Dimethylcarbamic acid 6-iodo-4-methyl-3-{3-(methylaminosulfonyl)aminobenzyl}-2-oxo-2H-1-benzopyran-7-yl ester] | 0.0079 µM | – | –
CNS(=O)(=O)Nc1cccc(Cc2c(C)c3cc(C)c(OC(=O)N(C)C)cc3oc2=O)c1 [Compound 1j-1-8-2, Dimethylcarbamic acid 6-methyl-4-methyl-3-{3-(methylaminosulfonyl)aminobenzyl}-2-oxo-2H-1-benzopyran-7-yl ester] | 0.0217 µM | – | –
CNS(=O)(=O)Nc1cccc(Cc2c(C)c3cc(C#N)c(OC(=O)N(C)C)cc3oc2=O)c1 [Compound 1j-1-9-2] | 0.0242 µM | – | –
CNS(=O)(=O)Nc1cc(Cc2c(C)c3ccc(OC(=O)N(C)C)cc3oc2=O)ccn1 [Compound 1j-1-10-2, Dimethylcarbamic acid 4-methyl-3-{2-(methylaminosulfonyl)aminopyridin-4-ylmethyl}-2-oxo-2H-1-benzopyran-7-yl ester] | – | 0.0319 µM | –
CNS(=O)(=O)Nc1cc(Cc2c(C)c3cc(F)c(OC(=O)N(C)C)cc3oc2=O)ccn1 [Compound 1j-1-11-2, Dimethylcarbamic acid 4-methyl-3-{2-(methylaminosulfonyl)aminopyridin-4-ylmethyl}-6-fluoro-2-oxo-2H-1-benzopyran-7-yl ester] | – | 0.0183 µM | –
CNS(=O)(=O)Nc1cc(Cc2c(C)c3cc(Cl)c(OC(=O)N(C)C)cc3oc2=O)ccn1 [Compound 1j-1-12-2, Dimethylcarbamic acid 4-methyl-3-{2-(methylaminosulfonyl)aminopyridin-4-ylmethyl}-6-chloro-2-oxo-2H-1-benzopyran-7-yl ester] | – | 0.0064 µM | –
CNS(=O)(=O)Nc1nccc(Cc2c(C)c3cc(F)c(Oc4ncccn4)cc3oc2=O)c1F [Compound 1j-2-17-2, 3-{2-(methylaminosulfonyl)amino-3-fluoropyridin-4-ylmethyl}-4-methyl-6-fluoro-7-(pyrimidin-2-yloxy)-2-oxo-2H-1-benzopyran] | – | 0.0211 µM | –
CNS(=O)(=O)Nc1nccc(Cc2c(C)c3cc(Cl)c(Oc4ncccn4)cc3oc2=O)c1F [Compound 1j-2-18-2, 3-{2-(Methylaminosulfonyl)amino-3-fluoropyridin-4-ylmethyl}-4-methyl-6-chloro-7-(pyrimidin-2-yloxy)-2-oxo-2H-1-benzopyran] | – | 0.0059 µM | –
CNS(=O)(=O)Nc1nccc(Cc2c(C)c3cc(C)c(Oc4ncccn4)cc3oc2=O)c1F [Compound 1j-2-19-2, 3-{2-(Methylaminosulfonyl)amino-3-fluoropyridin-4-ylmethyl}-4-methyl-6-methyl-7-(pyrimidin-2-yloxy)-2-oxo-2H-1-benzopyran] | – | 0.0178 µM | –
CCc1c(Cc2ccnc(NS(=O)(=O)NC)c2F)c(=O)oc2cc(Oc3ncccn3)c(C)cc12 [Compound 1j-2-19-2Me, 3-{2-(Methylaminosulfonyl)amino-3-fluoropyridin-4-ylmethyl}-4-ethyl-6-methyl-7-(pyrimidin-2-yloxy)-2-oxo-2H-1-benzopyran] | – | 0.0084 µM | –
Cc1c(Cc2cccc(NS(N)(=O)=O)c2F)c(=O)oc2cc(Oc3nccs3)ccc12 [Compound 1j-3-4-1, 3-{2-Fluoro-3-(aminosulfonyl)aminobenzyl}-4-methyl-7-(thiazol-2-yloxy)-2-oxo-2H-1-benzopyran] | – | 0.0225 µM | –
CNS(=O)(=O)Nc1cccc(Cc2c(C)c3ccc(Oc4nccs4)cc3oc2=O)c1F [Compound 1j-3-4-2, 3-{2-Fluoro-3-(methylaminosulfonyl)aminobenzyl}-4-methyl-7-(thiazol-2-yloxy)-2-oxo-2H-1-benzopyran] | – | 0.0109 µM | –
CNS(=O)(=O)Nc1cc(Cc2c(C)c3cc(Cl)c(Oc4nccs4)cc3oc2=O)ccn1 [Compound 1j-3-12-2, 3-{2-(Methylaminosulfonyl)aminopyridin-4-ylmethyl}-4-methyl-6-chloro-7-(thiazol-2-yloxy)-2-oxo-2H-1-benzopyran] | – | 0.0122 µM | –
CNS(=O)(=O)Nc1nccc(Cc2c(C)c3cc(C)c(Oc4nccs4)cc3oc2=O)c1F [Compound 1j-3-19-2, 3-{2-(Methylaminosulfonyl)amino-3-fluoropyridin-4-ylmethyl}-4-methyl-6-methyl-7-(thiazol-2-yloxy)-2-oxo-2H-1-benzopyran] | – | 0.0015 µM | –
CNS(=O)(=O)Nc1cc(Cc2c(C)c3cc(C)c(Oc4nccs4)cc3oc2=O)ccn1 [Compound 1j-3-20-2, 3-{2-(Methylaminosulfonyl)aminopyridin-4-ylmethyl}-4-methyl-6-methyl-7-(thiazol-2-yloxy)-2-oxo-2H-1-benzopyran] | – | 0.0089 µM | –
CNS(=O)(=O)Nc1nccc(Cc2c(C)c3cc(C)c(Oc4nccs4)cc3oc2=O)c1Cl [Compound 1j-3-44-2, 3-{2-(Methylaminosulfonyl)amino-3-chloropyridin-4-ylmethyl}-4-methyl-6-methyl-7-(thiazol-2-yloxy)-2-oxo-2H-1-benzopyran] | – | 0.0129 µM | –
CNC(=O)CS(=O)(=O)Nc1cccc(Cc2c(C)c3cc(Cl)c(OC(=O)N(C)C)cc3oc2=O)c1 [Compound 1o-1-3-2, Dimethylcarbamic acid 3-(3-methylcarbamoylmethanesulfonylamino-benzyl)-6-chloro-4-methyl-2-oxo-2H-1-benzopyran-7-yl ester] | 0.021 µM | – | –
Cc1c(Cc2cccc(NS(=O)(=O)CC(=O)N(C)C)c2)c(=O)oc2cc(OC(=O)N(C)C)c(Cl)cc12 [Compound 1o-1-3-3, Dimethylcarbamic acid 3-(3-dimethylcarbamoylmethanesulfonylamino-benzyl)-6-chloro-4-methyl-2-oxo-2H-1-benzopyran-7-yl ester] | 0.016 µM | – | –
